Results on two molecules are retold here after patent US7235584B2, “Non-psychotropic cannabinoids” (Pharmos Corporation, priority 2000, dated 2007).

The test system of assay [1] is rat model of myocardial ischemia. As to the kind of experiment: Rat model of myocardial ischemia and reperfusion. Format: in vivo, Sprague-Dawley rats. As to conditions: given 15 minutes before occlusion; 45 minutes occlusion, 4 hours reperfusion. From the text: A rat model of ischemia and reperfusion was used to test the ability of compounds to reduce the volumes of infarction is considered a measure of their potential as cardioprotectors.
The following model of myocardial infarction and heart failure was used to test the ability of compounds to reduce the volumes of infarction is considered a measure of their potential as cardioprotectors.
The methods used are essentially as described in Leor and Kloner (Leor and Klonner, Am. J Cardiol. 75:1292–3 1995). The experiment was performed in a masked fashion. In brief, Sprague-Dawley rats were given either vehicle or PRS-211,095 15 minutes before occlusion. They were subjected to 45 minutes of coronary occlusion and 4 hours of reperfusion, after which the coronary artery was reoccluded and 0.25 ml of Unisperse™ dye was injected IV to determine area of risk (AR). The rats were euthanized and hearts were analyzed as to infarct size using a 1% solution of triphenylteuazolium chloride for 15 minutes at 37° C. The area of necrosis (AN) in each heart was expressed as a percentage of the area at risk. This was multiplied by the weight of each slice to obtain the mass of tissue at risk and necrosis.

The subject of assay [2] is transient MCAo in rats. Nature of the assay: Transient middle cerebral artery occlusion (MCAo), infarct size evaluation. Format: in vivo. From the text: The middle cerebral artery is the cerebral blood vessel most susceptible to stroke in humans. In animals, coagulation, permanent ligation or permanent placement of an occluding thread ink the artery produces a permanent focal stroke affecting the MCA territory. Transient ligation or occlusion results in transient focal stroke. Both transient and permanent focal strokes result in varying degrees of edema and infarction in the affected brain regions. The ability of compounds to reduce the volumes of edema and infarction is considered a measure of their potential as anti-stroke treatment.
• a. Male rats (8/treatment group) 320–380 gr. (Harlan Israel). • b. Halothane (Rhone Poulenc France) • c. Pentobarbitone (Pental Veterinary, CTS Israel). • d. Poly-L-Lysine (Sigma, USA). • e. Silk suture material 3-0 and 4-0. • f. Nylon (Polyamid) suture material 3-0. Four cm pieces were cut and positioned in a solution of 1% Poly-L-Lysine for 1 minute and dried in an oven (60 ° C.) for 60 minutes. The tip of each piece was rounded under a flame. • g. Saline (Teva Medical). • h. Blank cremophor ethanol cosolvent (Pharmos). • i. Dexanabinol in cremophor ethanol cosolvent 50 mg/ml. (Both Dexanabinol and its vehicle were diluted in saline prior to drug administration. • j. Analogs PRS-211,092, PRS-211,095, PRS-211,128 PRS-211,132 and PRS-211,220 in cremophor ethanol cosolvent, 50 mg/ml. • k. The analogs were diluted in saline prior to drug administration. Methods Transient MCAo
a. Surgical details of the MCAO method used for testing dexanabinol analogs, are presented in Belayev, et al., (Belayev, Busto, Weizhao, and Ginsberg, Stroke 26:2313–2319, 1995) which is incorporated herein in its entirety by reference.
b. Two hours after the start of MCAo, the animals were reanesthetized with halothane, the neck wound was re-opened and the nylon thread pulled out of the Internal carotid artery (ICA). The skin wound was then closed with 3-0 silk suture material and the animals allowed to recover from the anesthesia.
c. Three sets of animals were tested. In the first test immediately (2+0 hours) before thread removal the animals were injected IV with either analogs PRS 211,095, PRS 211,128, PRS 211,132, or Dexanabinol (PRS 211,007) each at a dosage of 5 mg/kg. One group of animals was treated with 5mi/kg vehicle alone. In another group, the animals subjected to “sham” operation, the suture was passed into the ICA, as described above, but immediately withdrawn. […] Laser Doppler Flow (LDF) determined the success of MCAo—a drop of more then 50% in cerebral blood flow was considered as a sign of successful MCAO. […]
A detailed investigation of neurological performance was carried out on the first, third and the 7th day after the MCAo. […] Animals were scored according to their performance: […]

For the molecule `CCCCCCC(C)(C)c1cc(O)c2c(c1)OC(C)(C)C1CC=C(CSc3ncc[nH]3)CC21` (single isomer, unassigned; (+)) [211,092-000], in assay [1], the “infarct size (AN/AR, AN/LV), FIG. 13” value is given as “clear decrease in infarct size”.
With `CCCCCCC(C)(C)c1cc(O)c2c(c1)OC(C)(C)C1CC=C(Cn3ccnc3)CC21.Cl` (single isomer, unassigned; (+)) [211,095-000, (+)-(3S ,4S )-6,6-Dimethyl-(1,1-dimethylheptyl)-1-hydroxy-9-(imidazolomethyl)-6a,7,10,10a-tetrahydro-6H-dibenzo[b,d]pyran], the Behavioral/neurological outcome in assay [2] (posture and flexion reflex, days 1, 3, 7 after MCAo) was “fewer neurological deficits and recovered faster”. For the same molecule, the Mortality rate entry in assay [2] (transient MCAo, 5 mg/kg IV at 2+0 hours) is reported as “No mortality”. Also, in assay [2] (transient MCAo, one week after the ischemic insult), the “reduction of infarct size” value came to 60%.
